Legend:
Type in all cases: cell-based, Saccharomyces cerevisiae
[1] = system: AH22 strain; assay: Antifungal compound sensitivity test, control yeast AH22 strain (Example 16); settings: 30° C. 24.5 hours, relative value in percentage
Method: (§1) The transformed budding yeast AH22-StOS1 prepared in Example 15 was cultured while shaking at 30° C. for 18 hours in a Glu-Leu medium. As a control, the AH22 strain was similarly cultured while shaking at 30° C. for 18 hours in a Glu medium. The absorbance at 600 nm of each grown transformed budding yeast in a cell suspension was measured, and cell suspension diluted with sterilized distilled water to the absorbance of 0.1 was prepared. Further, a cell suspension in which the aforementioned cell suspension of the transformed budding yeast AH22-StOS1 was diluted 50-fold with a Glu-Leu medium, and a cell suspension in which the aforementioned cell suspension of the AH22 strain was diluted 50-fold with a Glu medium were prepared.
(§2) A solution in which each of Compounds (1) to (3) was dissolved in dimethylsulfoxide (DMSO) to the concentration of 6 ppm, a solution in which each of Compounds (4) and (5) was dissolved in dimethylsulfoxide (DMSO) to the concentration of 2000 ppm, and a solution in which Compounds (6) and (7) was dissolved in dimethylsulfoxide (DMSO) to the concentration of 20 ppm were prepared, and two microplates were prepared in which each 1.0 μL per well of the Compound solution and DMSO as a control were dispensed. In one microplate among them, each 100 μL of cell suspensions of the transformed budding yeast AH22-StOS1 which had been prepared by dilution as described above was dispensed, and cultured by allowing to stand at 30° C. for 28 hours. In another microplate, each 100 μL of cell suspensions of the control yeast AH22 strain which had been prepared by dilution as described above was dispensed, and cultured by allowing to stand at 30° C. for 24.5 hours. After culturing, the absorbance at 600 nm of each well was measured with a microplate reader.
(§3) A degree of growth of the transformed budding yeast is expressed as a relative value in percentage, letting the absorbance at 600 nm at the concentration of the Compound of 0 ppm to be 100. It was confirmed that an inhibiting degree of growth of the transformed budding yeast TM182-StOS1 by each test substance was grater than an inhibiting degree of growth of the transformed budding yeast AH22-StOS1 by each test substance, and the transformed budding yeast TM182-StOS1 was a transformed cell with the enhanced sensitivity to an antifungal compound as compared with the transformed budding yeast AH22-StOS1.

[2] = system: AH22 strain; assay: Antifungal compound sensitivity test, control yeast AH22 strain (Example 13); settings: 30° C. 24.5 hours, relative value in percentage
Method: as §1, with “AH22-FoOS1” for “AH22-StOS1”, “12” for “15”
as §2, with “of 600” for “of 6”, “them, each.” for “them, each”, “yeast AH22-FoOS1” for “yeast AH22-StOS1”, “for 26.5” for “for 28”
as §3, with “TM182-FoOS1” for “TM182-StOS1”, “AH22-FoOS1” for “AH22-StOS1”, “AH22-FoOS1.” for “AH22-StOS1.”

[3] = system: transformed budding yeast AH22-RsOS1; assay: Antifungal compound sensitivity test, transformed budding yeast AH22-RsOS1 (Example 19); settings: 30° C. 29.8 hours, relative value in percentage
Method: as §1, with “AH22-RsOS1” for “AH22-StOS1”, “18” for “15”
as §2, with “to” for “to (3) was dissolved in dimethylsulfoxide (DMSO) to the concentration of 6 ppm, a solution in which each of Compounds (4) and”, “600” for “2000”, “60” for “20”, “AH22-RsOS1” for “AH22-StOS1”, “29.8” for “28”, “24.8” for “24.5”
as §3, with “TM182-RsOS1” for “TM182-StOS1”, “AH22-RsOS1” for “AH22-StOS1”, “AH22-RsOS1.” for “AH22-StOS1.”

## CC12CC1(C)C(=O)N(c1cc(Cl)cc(Cl)c1)C2=O (stereo not drawn) [Compound (1), Procymidone]
[1]; final concentration 0.6 ppm
  Degree of growth of budding yeast AH22 Glu medium: 99%
[2]; final concentration 6 ppm
  Degree of growth of budding yeast AH22 Glu medium: 88%
[3]; final concentration 6.0 ppm
  Degree of growth of budding yeast AH22-RsOS1 Glu-Leu medium: 103%

## CC(C)NC(=O)N1CC(=O)N(c2cc(Cl)cc(Cl)c2)C1=O [Compound (2), Iprodione]
[1]; final concentration 0.6 ppm
  Degree of growth of budding yeast AH22 Glu medium: 94%
[2]; final concentration 6 ppm
  Degree of growth of budding yeast AH22 Glu medium: 91%
[3]; final concentration 6.0 ppm
  Degree of growth of budding yeast AH22-RsOS1 Glu-Leu medium: 101%

## C=CC1(C)OC(=O)N(c2cc(Cl)cc(Cl)c2)C1=O (stereo not drawn) [Compound (3), Vinclozolin]
[1]; final concentration 0.6 ppm
  Degree of growth of budding yeast AH22 Glu medium: 96%
[2]; final concentration 6 ppm
  Degree of growth of budding yeast AH22 Glu medium: 87%
[3]; final concentration 6.0 ppm
  Degree of growth of budding yeast AH22-RsOS1 Glu-Leu medium: 101%

## O=[N+]([O-])c1c(Cl)c(Cl)c(Cl)c(Cl)c1Cl [Compound (4), Quintozene]
[1]; final concentration 20 ppm
  Degree of growth of budding yeast AH22 Glu medium: 96%
[2]; final concentration 20 ppm
  Degree of growth of budding yeast AH22 Glu medium: 96%
[3]; final concentration 6.0 ppm
  Degree of growth of budding yeast AH22-RsOS1 Glu-Leu medium: 89%

## COP(=S)(OC)Oc1c(Cl)cc(C)cc1Cl [Compound (5), Tolclofos-methyl]
[1]; final concentration 20 ppm
  Degree of growth of budding yeast AH22 Glu medium: 80%
[2]; final concentration 20 ppm
  Degree of growth of budding yeast AH22 Glu medium: 80%
[3]; final concentration 6.0 ppm
  Degree of growth of budding yeast AH22-RsOS1 Glu-Leu medium: 85%

## N#Cc1c[nH]cc1-c1cccc2c1OC(F)(F)O2 [Compound (6), Fludioxonil]
[1]; final concentration 0.2 ppm
  Degree of growth of budding yeast AH22 Glu medium: 92%
[2]; final concentration 0.2 ppm
  Degree of growth of budding yeast AH22 Glu medium: 92%
[3]; final concentration 0.6 ppm
  Degree of growth of budding yeast AH22-RsOS1 Glu-Leu medium: 79%

## N#Cc1c[nH]cc1-c1cccc(Cl)c1Cl [Compound (7), Fenpiclonil]
[1]; final concentration 0.2 ppm
  Degree of growth of budding yeast AH22 Glu medium: 91%
[2]; final concentration 0.2 ppm
  Degree of growth of budding yeast AH22 Glu medium: 91%
[3]; final concentration 0.6 ppm
  Degree of growth of budding yeast AH22-RsOS1 Glu-Leu medium: 101%

Source: patent US7452688B2, “Transformed cell with enhanced sensitivity to antifungal compound and use thereof” (Sumitomo Chemical Company, Limited, priority 2002, dated 2008)
